According to patent publication US8546409B2, “Methods of treatment for solid tumors” (priority 2009, dated 2013):
“And” between values parts separate entries of the source, which are not always exact repeats. Equal entries are not always repeated.

Columns and labels:
p110α = p110α (Homo sapiens, UniProt P42336); test: Chick embryo fibroblast (CEF) transformation assay, p110α; format: cell-based; conditions: read-out: EC-50 for functional activity of p110α, highest concentration tested 2000 nM
Text: (§1) Moreover, compound I has comparatively low activity on p110α in a cell-transformation system designed to measure functional activity of these kinases, but is a potent inhibitor of both p110β and p110δ in that assay. See Example 1. This chick embryo fibroblast (CEF) transformation system has been reported as a useful way to assess the functional activity of the PI3K signaling pathway. Denley, et al., “Oncogenic signaling of class I PI3K isoforms,” Oncogene, vol. 27(18), 2561-74 (2008). Transformation of CEF cells in the assay depends upon functional kinase activity. Kang, et al., Proc. Nat'l Acad. Sci. USA, vol. 103(5), 1289-94 (2006). The readout of this assay is based on the frequency of transformation of CEF cells exposed to viral vectors carrying a specific p110 isoform of interest.
(§2) Chick embryo fibroblasts (CEF) are transduced with viral stocks with versions of the human genes for the individual PI3K isoforms p110α, p110β, p110δ and p110γ. These transduced CEF lines are then plated in a growth medium where oncogenically transformed cells form foci that can then be stained and counted. […] Denley A, Kang S, Karst U and Vogt PK, “Oncogenic signaling of class 1 PI3K isoforms.” Oncogene (2008) 27: 2561-2574. FIG. 3 illustrates the readout of this assay.

p110β = biological target: T1, p110β (Homo sapiens, UniProt P42338); test: Chick embryo fibroblast (CEF) transformation assay, p110β; format: cell-based; conditions: read-out: EC-50 for inhibition of functional activity of p110β
T1 construct: expressed in transfected cells; host or cells: chick embryo fibroblasts (CEF), viral transduction
Text: as §1, §2

p110δ [1] = biological target: T2, p110δ (Homo sapiens, UniProt O00329); test: Chick embryo fibroblast (CEF) transformation assay, p110δ; format: cell-based; conditions: read-out: EC-50 for inhibition of functional activity of p110δ
T2 construct: expressed in transfected cells; host or cells: chick embryo fibroblasts (CEF), viral transduction
Text: as §1, §2
T2 sequence (O00329 whole entry): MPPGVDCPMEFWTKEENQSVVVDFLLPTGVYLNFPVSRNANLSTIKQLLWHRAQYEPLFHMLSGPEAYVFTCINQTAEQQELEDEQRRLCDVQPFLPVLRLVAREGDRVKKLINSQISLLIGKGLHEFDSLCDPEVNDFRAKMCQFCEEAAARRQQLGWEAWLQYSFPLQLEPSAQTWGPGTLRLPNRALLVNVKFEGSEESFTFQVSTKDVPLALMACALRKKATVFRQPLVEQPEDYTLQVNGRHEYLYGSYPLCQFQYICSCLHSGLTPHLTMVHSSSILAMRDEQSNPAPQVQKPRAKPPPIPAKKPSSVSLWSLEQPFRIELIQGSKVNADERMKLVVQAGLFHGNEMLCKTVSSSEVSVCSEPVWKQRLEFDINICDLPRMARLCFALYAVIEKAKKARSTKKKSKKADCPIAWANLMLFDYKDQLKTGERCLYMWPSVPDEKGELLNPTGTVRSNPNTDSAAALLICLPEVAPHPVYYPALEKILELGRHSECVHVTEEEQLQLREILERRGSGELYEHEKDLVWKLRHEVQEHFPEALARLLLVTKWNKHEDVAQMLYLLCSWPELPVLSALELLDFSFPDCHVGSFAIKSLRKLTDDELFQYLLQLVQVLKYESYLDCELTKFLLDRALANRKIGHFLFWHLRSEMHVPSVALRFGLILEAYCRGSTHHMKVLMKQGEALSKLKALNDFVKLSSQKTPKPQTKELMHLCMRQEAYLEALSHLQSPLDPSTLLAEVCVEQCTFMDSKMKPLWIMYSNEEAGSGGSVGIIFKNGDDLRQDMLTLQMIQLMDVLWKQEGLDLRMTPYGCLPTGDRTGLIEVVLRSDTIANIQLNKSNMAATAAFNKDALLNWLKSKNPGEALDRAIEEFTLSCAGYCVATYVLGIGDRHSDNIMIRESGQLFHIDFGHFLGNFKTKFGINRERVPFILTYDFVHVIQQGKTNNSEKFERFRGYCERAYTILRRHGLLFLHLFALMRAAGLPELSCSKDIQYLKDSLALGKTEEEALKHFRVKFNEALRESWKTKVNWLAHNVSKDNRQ

DNA-PK = DNA-PK (Homo sapiens, UniProt P78527); test: Inhibition of kinase activity of other lipid kinases, DNA-PK; format: biochemical; conditions: read-out: IC-50 for inhibition of kinase activity, DNA-PK
mTOR = mTOR (Homo sapiens, UniProt P42345); test: Inhibition of kinase activity of other lipid kinases, mTOR; format: biochemical; conditions: read-out: IC-50 for inhibition of kinase activity, mTOR
p110δ [2] = biological target: T3, p110δ (Homo sapiens, UniProt O00329); test: Cell-based p110δ assay: anti-FcεR1 stimulated CD63 movement to surface of basophils
T3 construct: endogenous in cells
Method: The p110α assay used SW3T3 cells stimulated by PDGF, and p110 kinase activity was measured by Akt phosphorylation. The p110β activity was measured by lysophosphatidic acid stimulation of Akt phosphorylation in mouse embryonic fibroblasts. The activity of p110δ was measured by anti-FcεR1 antibody cross linking stimulation of CD63 movement to the surface of basophils. Finally, the activity of p110γ was measured by fMLP stimulation of CD63 antigen movement to the cell surface of basophils.
T3 sequence (O00329 whole entry, species assumed): as the sequence (O00329 whole entry) above
T3 sequence (P27986 whole entry partner, species assumed): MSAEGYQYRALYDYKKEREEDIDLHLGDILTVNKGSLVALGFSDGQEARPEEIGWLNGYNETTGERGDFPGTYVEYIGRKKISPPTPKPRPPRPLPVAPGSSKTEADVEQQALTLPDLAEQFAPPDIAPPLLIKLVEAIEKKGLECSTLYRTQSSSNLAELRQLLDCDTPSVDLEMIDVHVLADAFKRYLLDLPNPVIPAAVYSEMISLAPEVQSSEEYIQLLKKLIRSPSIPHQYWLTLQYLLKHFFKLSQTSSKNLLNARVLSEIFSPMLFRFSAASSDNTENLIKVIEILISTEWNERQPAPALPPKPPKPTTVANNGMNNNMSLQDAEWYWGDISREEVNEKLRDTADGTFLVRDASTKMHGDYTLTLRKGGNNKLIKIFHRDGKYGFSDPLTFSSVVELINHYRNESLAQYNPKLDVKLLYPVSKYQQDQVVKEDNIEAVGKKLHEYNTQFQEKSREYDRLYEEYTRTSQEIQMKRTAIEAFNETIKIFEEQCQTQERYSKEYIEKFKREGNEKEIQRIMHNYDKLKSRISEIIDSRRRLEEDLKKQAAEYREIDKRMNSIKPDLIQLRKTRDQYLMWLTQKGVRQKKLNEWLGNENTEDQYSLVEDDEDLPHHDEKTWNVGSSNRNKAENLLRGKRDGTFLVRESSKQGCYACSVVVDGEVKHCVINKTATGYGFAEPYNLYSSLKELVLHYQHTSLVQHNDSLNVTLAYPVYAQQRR

[3] = test system: Akt phosphorylation in T47D (breast cancer); test: Phosphorylation of Akt in T47D cells (FIG. 4); format: cell-based; conditions: 10 micromolar
Text: (§3) This distinguishes compound I from other known PI3K inhibitors in development for treatment of solid tumors, which are believed to act primarily at the p110α isoform or on p110α plus other isoforms, or even on all PI3Ks plus mTOR.

[4] = test system: Akt phosphorylation in OVCAR-3 (ovarian cancer); test: Phosphorylation of Akt in OVCAR-3 cells (FIG. 4); format: cell-based; conditions: OVCAR-3, 10 micromolar
Text: as §3

OVCAR-3 [5] = test: Tumor cell culture growth, optical density at 459 nm (FIG. 7), OVCAR-3; format: cell-based; conditions: OVCAR-3, 5-10 micromolar
in vivo = conditions: rat, 60 mg/kg/day
Method: Compound I was dosed at 60, 120, or 240 mg/kg/day administered as a single dose for up to 14 days in healthy rats. […] The peak concentration of compound I (Cmax) and area under the curve (AUC) for tolerated doses were higher than those observed with effective doses of Compound I in the xenograft model tumors in mice.

HOP-62 = test: NCI panel growth inhibition, HOP-62; format: cell-based; conditions: Homo sapiens, Non-Small Cell Lung Cancer
Text: (§4) Compound I has also been tested in a battery of tumor cell assays known as the NCI panel.

HOP-92 = test: NCI panel growth inhibition, HOP-92; format: cell-based; conditions: Homo sapiens, Non-Small Cell Lung Cancer
Text: as §4

NCI-H226 = test: NCI panel growth inhibition, NCI-H226; format: cell-based; conditions: Homo sapiens, Non-Small Cell Lung Cancer
Text: as §4

NCI-H522 = test: NCI panel growth inhibition, NCI-H522; format: cell-based; conditions: Homo sapiens, Non-Small Cell Lung Cancer
Text: as §4

HCT-116 = test: NCI panel growth inhibition, HCT-116; format: cell-based; conditions: Homo sapiens, Colon Cancer
Text: as §4

KM12 = test: NCI panel growth inhibition, KM12; format: cell-based; conditions: Homo sapiens, Colon Cancer
Text: as §4

SF-539 = test: NCI panel growth inhibition, SF-539; format: cell-based; conditions: Homo sapiens, CNS Cancer
Text: as §4

SNB-19 = test: NCI panel growth inhibition, SNB-19; format: cell-based; conditions: Homo sapiens, CNS Cancer
Text: as §4

LOX IMVI = test: NCI panel growth inhibition, LOX IMVI; format: cell-based; conditions: Homo sapiens, Melanoma
Text: as §4

MALME-3M = test: NCI panel growth inhibition, MALME-3M; format: cell-based; conditions: Homo sapiens, Melanoma
Text: as §4

UACC-62 = test: NCI panel growth inhibition, UACC-62; format: cell-based; conditions: Homo sapiens, Melanoma
Text: as §4

OVCAR-3 [6] = test: NCI panel growth inhibition, OVCAR-3; format: cell-based; conditions: Homo sapiens, Ovarian
Text: as §4

OVCAR-5 = test: NCI panel growth inhibition, OVCAR-5; format: cell-based; conditions: Homo sapiens, Ovarian
Text: as §4

SK-OV-3 = test: NCI panel growth inhibition, SK-OV-3; format: cell-based; conditions: Homo sapiens, Ovarian
Text: as §4

786-0 = test: NCI panel growth inhibition, 786-0; format: cell-based; conditions: Homo sapiens, Renal
Text: as §4

TK-10 = test: NCI panel growth inhibition, TK-10; format: cell-based; conditions: Homo sapiens, Renal
Text: as §4

PC-3 = test: NCI panel growth inhibition, PC-3; format: cell-based; conditions: Homo sapiens, Prostate
Text: as §4

ADR-RES = test: NCI panel growth inhibition, ADR-RES; format: cell-based; conditions: Breast Cancer
Text: as §4

HS 578T = test: NCI panel growth inhibition, HS 578T; format: cell-based; conditions: Homo sapiens, Breast Cancer
Text: as §4

MDA-MB-435 = test: NCI panel growth inhibition, MDA-MB-435; format: cell-based; conditions: Homo sapiens, Breast Cancer
Text: as §4

T1 sequence (P42338 whole entry): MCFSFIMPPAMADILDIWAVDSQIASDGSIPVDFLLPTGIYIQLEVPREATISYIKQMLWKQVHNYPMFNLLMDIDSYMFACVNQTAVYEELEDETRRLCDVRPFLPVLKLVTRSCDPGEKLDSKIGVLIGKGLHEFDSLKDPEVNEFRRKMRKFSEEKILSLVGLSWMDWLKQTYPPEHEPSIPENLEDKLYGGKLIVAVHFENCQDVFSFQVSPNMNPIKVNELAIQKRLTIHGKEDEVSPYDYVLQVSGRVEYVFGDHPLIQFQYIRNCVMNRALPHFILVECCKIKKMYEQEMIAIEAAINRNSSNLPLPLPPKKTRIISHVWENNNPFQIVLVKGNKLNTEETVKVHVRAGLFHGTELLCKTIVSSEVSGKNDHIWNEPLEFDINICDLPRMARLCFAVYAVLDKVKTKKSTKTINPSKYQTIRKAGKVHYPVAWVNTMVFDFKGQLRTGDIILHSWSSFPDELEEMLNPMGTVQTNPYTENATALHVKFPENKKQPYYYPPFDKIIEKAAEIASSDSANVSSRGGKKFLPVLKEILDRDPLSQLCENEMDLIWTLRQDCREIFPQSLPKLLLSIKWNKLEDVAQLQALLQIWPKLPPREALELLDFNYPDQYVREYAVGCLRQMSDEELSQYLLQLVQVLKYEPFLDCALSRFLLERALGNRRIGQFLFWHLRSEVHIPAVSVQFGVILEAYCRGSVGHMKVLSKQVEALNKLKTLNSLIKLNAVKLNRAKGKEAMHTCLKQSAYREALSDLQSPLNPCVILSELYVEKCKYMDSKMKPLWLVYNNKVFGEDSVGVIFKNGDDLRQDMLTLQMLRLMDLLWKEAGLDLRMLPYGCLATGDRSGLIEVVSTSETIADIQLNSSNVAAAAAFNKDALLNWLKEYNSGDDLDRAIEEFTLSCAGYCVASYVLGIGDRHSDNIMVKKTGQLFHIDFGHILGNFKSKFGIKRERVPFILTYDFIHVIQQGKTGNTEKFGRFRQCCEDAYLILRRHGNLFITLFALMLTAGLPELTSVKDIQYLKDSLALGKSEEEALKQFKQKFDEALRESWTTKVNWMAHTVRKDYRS
Sequence of p110α (P42336 whole entry, stated change not applied, canonical isoform): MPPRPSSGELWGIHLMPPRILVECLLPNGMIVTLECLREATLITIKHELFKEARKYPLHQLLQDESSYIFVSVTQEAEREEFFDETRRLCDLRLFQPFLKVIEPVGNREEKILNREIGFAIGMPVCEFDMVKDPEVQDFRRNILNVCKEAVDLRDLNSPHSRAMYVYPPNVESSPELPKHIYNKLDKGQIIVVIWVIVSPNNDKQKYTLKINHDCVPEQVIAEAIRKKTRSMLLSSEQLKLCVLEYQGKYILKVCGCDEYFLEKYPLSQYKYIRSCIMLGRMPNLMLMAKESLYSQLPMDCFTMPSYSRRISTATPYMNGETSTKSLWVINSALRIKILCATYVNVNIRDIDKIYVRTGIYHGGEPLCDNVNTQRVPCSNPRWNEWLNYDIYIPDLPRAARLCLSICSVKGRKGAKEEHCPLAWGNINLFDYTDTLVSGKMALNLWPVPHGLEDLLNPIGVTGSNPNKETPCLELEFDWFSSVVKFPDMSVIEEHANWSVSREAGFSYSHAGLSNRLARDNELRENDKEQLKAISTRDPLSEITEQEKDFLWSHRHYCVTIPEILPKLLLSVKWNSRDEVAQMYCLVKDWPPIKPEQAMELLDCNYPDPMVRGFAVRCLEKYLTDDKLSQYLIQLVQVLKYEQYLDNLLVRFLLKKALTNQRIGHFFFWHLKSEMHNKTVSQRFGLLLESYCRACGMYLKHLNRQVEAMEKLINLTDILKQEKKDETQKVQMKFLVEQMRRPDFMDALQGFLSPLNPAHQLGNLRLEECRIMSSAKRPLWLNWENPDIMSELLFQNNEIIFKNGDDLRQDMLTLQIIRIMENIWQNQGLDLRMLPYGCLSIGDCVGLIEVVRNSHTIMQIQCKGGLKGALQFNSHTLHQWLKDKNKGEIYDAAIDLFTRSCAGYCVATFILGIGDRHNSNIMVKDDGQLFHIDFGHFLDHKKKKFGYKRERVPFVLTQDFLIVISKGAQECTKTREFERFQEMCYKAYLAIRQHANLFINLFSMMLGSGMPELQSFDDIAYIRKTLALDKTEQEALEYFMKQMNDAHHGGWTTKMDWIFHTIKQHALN

C[C@H](Nc1ncnc2[nH]cnc12)c1nc2ccc(F)cc2c(=O)n1-c1ccccc1 [Compound I]
EC50 (p110α): > 2000 nM
EC50 (p110β): 150 nM and ~150 nM
EC50 (p110δ [1]): ~15 nM
IC50 (DNA-PK): 13 µM
IC50 (mTOR): 100 µM
EC50 (p110δ [2]; FB, read-out: Cell-based assay EC50 p110δ, FB): 8.4 nM
EC50 (p110δ [2]; WB, read-out: Cell-based assay EC50 p110δ, WB): 19 nM
Phosphorylation of Akt [3]: inhibits phosphorylation of Akt
Phosphorylation of Akt [4]: inhibits phosphorylation of Akt
Inhibition of tumor cell culture growth (OVCAR-3 [5]): strong inhibition of growth
AUC (in vivo): 58000 ng·h/mL
Cmax (in vivo): 7300 ng/mL
GI50 (HOP-62): 14.8 µM
GI50 (HOP-92): 300 nM
GI50 (NCI-H226): 100 µM
GI50 (NCI-H522): 51.8 µM
GI50 (HCT-116): 37.9 µM
GI50 (KM12): 2000 nM
GI50 (SF-539): 15.9 µM
GI50 (SNB-19): 19.3 µM
GI50 (LOX IMVI): 36.1 µM
GI50 (MALME-3M): 4.58 µM
GI50 (UACC-62): 1430 nM
GI50 (OVCAR-3 [6]): 316 nM
GI50 (OVCAR-5): 27.7 µM
GI50 (SK-OV-3): 4.02 µM
GI50 (786-0): 1990 nM
GI50 (TK-10): 1240 nM
GI50 (PC-3): 647 nM
GI50 (ADR-RES): 58.6 µM
GI50 (HS 578T): 2240 nM
GI50 (MDA-MB-435): 43.1 µM
